The target in one experiment is T1, Adrenergic β2 (Homo sapiens, UniProt P07550).
T1 construct: Adherent H292 cells are removed from tissue culture flasks by treatment with Accutase™ cell detachment solution; endogenous in cells; host or cells: H292 cells
The experiment can be described thus: Adrenergic β2 mediated cAMP production in H292 cells (AlphaScreen), concentration response. The experiment is classed as cell-based. Conditions: for EC50: 60 min, 300 μM rolipram, read-out: β2 pEC50 (converted); for β2 Intrinsic Activity: fraction relative to the maximum activity determined for formoterol. The essentials:
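H292 cells seeded overnight, pretreated 10 min with rolipram (300 μM final), then exposed to compounds 60 min at room temperature in HBSS/10 mM HEPES pH 7.4/5 mM glucose, 1% DMSO. Lysate cAMP quantified by AlphaScreen against a standard curve; four-parameter fit gives pEC50 and intrinsic activity relative to formoterol maximum.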
For orientation: Cyclic AMP is a second messenger, typically raised through Gs and lowered through Gi signalling.

For experiment [1], the target named is T2, human muscarinic acetylcholine M3 receptor (Homo sapiens, UniProt P20309).
T2 construct: expressed in transfected cells; host or cells: CHO-K1 (Chinese Hamster Ovary) cell membranes
T2 sequence (P20309 whole entry): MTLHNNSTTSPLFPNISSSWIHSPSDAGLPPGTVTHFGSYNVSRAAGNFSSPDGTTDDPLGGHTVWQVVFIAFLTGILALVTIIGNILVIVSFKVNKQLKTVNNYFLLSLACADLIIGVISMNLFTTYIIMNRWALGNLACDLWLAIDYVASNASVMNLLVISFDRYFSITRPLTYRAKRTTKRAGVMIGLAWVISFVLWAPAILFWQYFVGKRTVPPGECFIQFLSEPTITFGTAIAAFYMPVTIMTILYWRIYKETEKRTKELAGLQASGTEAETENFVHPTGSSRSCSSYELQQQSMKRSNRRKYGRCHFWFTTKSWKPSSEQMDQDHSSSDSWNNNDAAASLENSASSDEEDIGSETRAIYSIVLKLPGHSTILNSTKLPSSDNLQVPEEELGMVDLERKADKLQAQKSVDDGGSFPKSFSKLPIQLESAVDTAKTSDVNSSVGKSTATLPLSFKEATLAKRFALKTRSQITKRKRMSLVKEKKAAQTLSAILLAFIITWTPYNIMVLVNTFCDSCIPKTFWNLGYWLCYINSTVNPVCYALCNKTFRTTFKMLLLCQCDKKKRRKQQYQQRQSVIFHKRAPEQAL
The experiment can be described thus: Muscarinic 3 receptor binding assay ([3H]NMS competition, SPA), pIC50. Conditions: [3H]NMS 0.1 nM, CHO-K1 cell membranes expressing human M3 receptor. The procedure, abridged:
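Competition of [3H]NMS (0.1 nM, quarter Kd) binding to CHO-K1 membranes expressing human M3, SPA format, in 20 mM HEPES pH 7.4, 5 mM MgCl2, 0.1% BSA, 1% DMSO. Incubated 16 h at room temperature; non-specific binding with 1 μM atropine; pIC50 from specific binding.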

Here are results for 15 compounds from patent US8476265B2, “Compounds-801” (AstraZeneca AB, priority 2010, dated 2013).

T1 sequence (P07550 whole entry): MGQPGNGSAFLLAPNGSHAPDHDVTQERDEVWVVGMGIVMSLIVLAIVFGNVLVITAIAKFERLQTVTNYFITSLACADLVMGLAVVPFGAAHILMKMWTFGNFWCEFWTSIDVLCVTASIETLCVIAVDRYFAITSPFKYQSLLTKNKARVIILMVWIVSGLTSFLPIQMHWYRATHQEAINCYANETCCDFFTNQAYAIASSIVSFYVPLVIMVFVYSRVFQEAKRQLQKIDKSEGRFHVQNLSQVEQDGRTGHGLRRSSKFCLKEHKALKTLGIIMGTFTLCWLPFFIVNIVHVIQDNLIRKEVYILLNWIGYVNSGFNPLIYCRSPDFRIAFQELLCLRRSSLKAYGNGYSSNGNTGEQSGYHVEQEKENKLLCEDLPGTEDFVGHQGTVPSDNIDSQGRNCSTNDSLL

One may read the IC50 as the concentration that gives 50% inhibition. A lower IC50 goes with higher potency. `CC(C)c1nc(C(=O)N2CCOC3(CCN(CCc4cccc(CCOCCC(=O)N(CCNCCc5ccc(O)c6c5OCC(=O)N6)C5CCCC5)c4)CC3)C2)cs1` [Example 39, N-Cyclopentyl-N-(2-(2-(5-hydroxy-3-oxo-3,4-dihydro-2H-benzo[b][1,4]oxazin-8-yl)ethylamino)ethyl)-3-(3-(2-(4-(2-isopropylthiazole-4-carbonyl)-1-oxa-4,9-diazaspiro[5.5]undecan-9-yl)ethyl)phenethoxy)propanamide ditrifluoroacetate]: on Adrenergic β2, the EC50 was 10 nM and the “β2 Intrinsic Activity” value came to 1.0. In experiment [1], this compound had an IC50 of 1 nM.
As to `CC(C)CN(CCNCCc1ccc(O)c2c1OCC(=O)N2)C(=O)CCOCCc1cccc(CCN2CCC3(CC2)CN(C(=O)c2csc(C(C)C)n2)CCO3)c1` [Example 40, N-(2-(2-(5-Hydroxy-3-oxo-3,4-dihydro-2H-benzo[b][1,4]oxazin-8-yl)ethylamino)ethyl)-N-Isobutyl-3-(3-(2-(4-(2-isopropylthiazole-4-carbonyl)-1-oxa-4,9-diazaspiro[5.5]undecan-9-yl)ethyl)phenethoxy)propanamide ditrifluoroacetate], at Adrenergic β2, the EC50 was 20 nM and the “β2 Intrinsic Activity” value is recorded as 1.0. This compound showed an IC50 in experiment [1] of 1.26 nM.
Regarding `CC(C)c1nc(C(=O)N2CCOC3(CCN(CCc4cccc(CCOCCC(=O)N(CCNCCc5ccc(O)c6c5OCC(=O)N6)Cc5ccccc5)c4)CC3)C2)cs1` [Example 41, N-Benzyl-N-(2-(2-(5-hydroxy-3-oxo-3,4-dihydro-2H-benzo[b][1,4]oxazin-8-yl)ethylamino)ethyl)-3-(3-(2-(4-(2-isopropylthiazole-4-carbonyl)-1-oxa-4,9-diazaspiro[5.5]undecan-9-yl)ethyl)phenethoxy)propanamide ditrifluoroacetate], at Adrenergic β2, the EC50 is 20 nM and the “β2 Intrinsic Activity” value was 0.9. In experiment [1], this compound showed an IC50 of 0.794 nM.
`Cc1nc(C(=O)N2CCOC3(CCN(Cc4cccc(CCOCCC(=O)N(CCNCCc5ccc(O)c6[nH]c(=O)ccc56)C5CCCCC5)c4)CC3)C2)cs1` [Example 42, N-Cyclohexyl-N-(2-(2-(8-hydroxy-2-oxo-1,2-dihydroquinolin-5-yl)ethylamino)ethyl)-3-(3-((4-(2-methylthiazole-4-carbonyl)-1-oxa-4,9-diazaspiro[5.5]undecan-9-yl)methyl)phenethoxy)propanamide ditrifluoroacetate]: at Adrenergic β2, the EC50 is 398 nM and the “β2 Intrinsic Activity” value was 1.0. For the same compound, in experiment [1], the IC50 is less than 0.0316 nM.
As to `CCN(CCNCCc1ccc(O)c2[nH]c(=O)sc12)C(=O)CCOCCc1cc(CN2CCC3(CC2)CN(C(=O)c2csc(C(C)C)n2)CCO3)ccc1F` [Example 43, N-Ethyl-3-(2-fluoro-5-((4-(2-isopropylthiazole-4-carbonyl)-1-oxa-4,9-diazaspiro[5.5]undecan-9-yl)methyl)phenethoxy)-N-(2-(2-(4-hydroxy-2-oxo-2,3-dihydrobenzo[d]thiazol-7-yl)ethylamino)ethyl)propanamide ditrifluoroacetate], on Adrenergic β2, the EC50 was 398 nM and the “β2 Intrinsic Activity” value worked out at 0.9. In experiment [1], this compound showed an IC50 of 1 nM.
`CCN(CCNCCc1ccc(O)c2[nH]c(=O)sc12)C(=O)CCOCCc1ccc(F)c(CN2CCC3(CC2)CN(C(=O)c2csc(C(C)C)n2)CCO3)c1` [Example 44, N-Ethyl-3-(4-fluoro-3-((4-(2-isopropylthiazole-4-carbonyl)-1-oxa-4,9-diazaspiro[5.5]undecan-9-yl)methyl)phenethoxy)-N-(2-(2-(4-hydroxy-2-oxo-2,3-dihydrobenzo[d]thiazol-7-yl)ethylamino)ethyl)propanamide]: at Adrenergic β2, the EC50 is 501 nM and the “β2 Intrinsic Activity” value came to 1.1. Moreover, in experiment [1], the half-maximal inhibitory concentration (IC50) was 0.501 nM.
For the compound `Cc1nc(C(=O)N2CCOC3(CCN(Cc4ccc(CCOCCC(=O)N(CCNCCc5ccc(O)c6c5OCC(=O)N6)C5CCCCC5)cc4)CC3)C2)cs1` [Example 45, N-Cyclohexyl-N-(2-(2-(5-hydroxy-3-oxo-3,4-dihydro-2H-benzo[b][1,4]oxazin-8-yl)ethylamino)ethyl)-3-(4-((4-(2-methylthiazole-4-carbonyl)-1-oxa-4,9-diazaspiro[5.5]undecan-9-yl)methyl)phenethoxy)propanamide ditrifluoroacetate], on Adrenergic β2, the EC50 is 39.8 nM and the “β2 Intrinsic Activity” value was 0.9. In addition, the IC50 in experiment [1] is 6.31 nM.
Take `CCN(CCNCCc1ccc(O)c2[nH]c(=O)sc12)C(=O)CCOCCc1cc(CN2CCC3(CC2)CN(C(=O)c2csc(C)n2)CCO3)ccc1Cl` [Example 46, 3-(2-Chloro-5-((4-(2-methylthiazole-4-carbonyl)-4-oxa-4,9-diazaspiro[5.5]undecan-9-yl)methyl)phenethoxy)-N-ethyl-N-(2-(2-(4-hydroxy-2-oxo-2,3-dihydrobenzo[d]thiazol-7-yl)ethylamino)ethyl)propanamide ditrifluoroacetate]: on Adrenergic β2, the EC50 is 398 nM and the “β2 Intrinsic Activity” value was 0.9. For the same compound, in experiment [1], the IC50 is 0.316 nM.
For `CC(C)c1nc(C(=O)N2CCOC3(CCN(Cc4cc(F)cc(CCOCCC(=O)N(CCNCCc5ccc(O)c6c5OCC(=O)N6)C5CCCCC5)c4)CC3)C2)cs1` [Example 47, N-Cyclohexyl-3-(3-fluoro-5-((4-(2-isopropylthiazole-4-carbonyl)-1-oxa-4,9-diazaspiro[5.5]undecan-9-yl)methyl)phenethoxy)-N-(2-(2-(5-hydroxy-3-oxo-3,4-dihydro-2H-benzo[b][1,4]oxazin-8-yl)ethylamino)ethyl)propanamide ditrifluoroacetate] the same measures were 63.1 nM, 0.9 and 0.398 nM.
In the case of `CCN(CCNCCc1ccc(O)c2[nH]c(=O)sc12)C(=O)CCOCCc1csc(CN2CCC3(CC2)CN(C(=O)c2csc(C(C)C)n2)CCO3)c1` [Example 48, N-Ethyl-N-(2-(2-(4-hydroxy-2-oxo-2,3-dihydrobenzo[d]thiazol-7-yl)ethylamino)ethyl)-3-(2-(5-((4-(2-isopropylthiazole-4-carbonyl)-1-oxa-4,9-diazaspiro[5.5]undecan-9-yl)methyl)thiophen-3-yl)ethoxy)propanamide ditrifluoroacetate], at Adrenergic β2, the EC50 is 200 nM and the “β2 Intrinsic Activity” value was found to be 0.9. Besides, the IC50 in experiment [1] is 0.2 nM.
On to `CC(C)c1nc(C(=O)N2CCOC3(CCN(Cc4cc(CCOCCC(=O)N(CCNCCc5ccc(O)c6c5OCC(=O)N6)C5CCCCC5)ccc4Cl)CC3)C2)cs1` [Example 49, 3-(4-Chloro-3-((4-(2-isopropylthiazole-4-carbonyl)-1-oxa-4,9-diazaspiro[5.5]undecan-9-yl)methyl)phenethoxy)-N-cyclohexyl-N-(2-(2-(5-hydroxy-3-oxo-3,4-dihydro-2H-benzo[b][1,4]oxazin-8-yl)ethylamino)ethyl)propanamide ditrifluoroacetate], for which, at Adrenergic β2, the EC50 is 158 nM and the “β2 Intrinsic Activity” value amounted to 0.9. In experiment [1], the IC50 was 3.16 nM.
For `CCN(CCNCCc1ccc(O)c2[nH]c(=O)sc12)C(=O)CCOCCc1cc(Cl)cc(CN2CCC3(CC2)CN(C(=O)c2csc(C(C)C)n2)CCO3)c1` [Example 50, 3-(3-Chloro-5-((4-(2-isopropylthiazole-4-carbonyl)-1-oxa-4,9-diazaspiro[5.5]undecan-9-yl)methyl)phenethoxy)-N-ethyl-N-(2-(2-(4-hydroxy-2-oxo-2,3-dihydrobenzo[d]thiazol-7-yl)ethylamino)ethyl)propanamide ditrifluoroacetate], at Adrenergic β2, the EC50 was 126 nM and the “β2 Intrinsic Activity” value worked out at 0.9. Moreover, in experiment [1], the IC50 is 794 nM.
Consider `CC(C)c1nc(C(=O)N2CCOC3(CCN(CCOc4ccc(CCOCCC(=O)N(CCNCCc5ccc(O)c6c5OCC(=O)N6)C5CCCCC5)cc4)CC3)C2)cs1` [Example 51, N-Cyclohexyl-N-(2-(2-(5-hydroxy-3-oxo-3,4-dihydro-2H-benzo[b][1,4]oxazin-8-yl)ethylamino)ethyl)-3-(4-(2-(4-(2-isopropylthiazole-4-carbonyl)-1-oxa-4,9-diazaspiro[5.5]undecan-9-yl)ethoxy)phenethoxy)propanamide ditrifluoroacetate], for which, on Adrenergic β2, the EC50 was 63.1 nM and the “β2 Intrinsic Activity” value was determined as 1.1. The compound further showed an IC50 in experiment [1] of 3.98 nM.
With `CCN(CCNCCc1ccc(O)c2[nH]c(=O)sc12)C(=O)CCOCCc1ccc(CCN2CCC3(CC2)CN(C(=O)c2csc(C(C)C)n2)CCO3)s1` [Example 52, N-Ethyl-N-(2-(2-(4-hydroxy-2-oxo-2,3-dihydrobenzo[d]thiazol-7-yl)ethylamino)ethyl)-3-(2-(5-(2-(4-(2-isopropylthiazole-4-carbonyl)-1-oxa-4,9-diazaspiro[5.5]undecan-9-yl)ethyl)thiophen-2-yl)ethoxy)propanamide ditrifluoroacetate], on Adrenergic β2, the EC50 is 12.6 nM and the “β2 Intrinsic Activity” value is 0.9. Moreover, in experiment [1], the IC50 is 1.58 nM.
For `CC(C)c1nc(C(=O)N2CCOC3(CCN(CCOc4cccc(CCOCCC(=O)N(CCNCCc5ccc(O)c6c5OCC(=O)N6)C5CCCCC5)c4)CC3)C2)cs1` [Example 53, N-Cyclohexyl-N-(2-(2-(5-hydroxy-3-oxo-3,4-dihydro-2H-benzo[b][1,4]oxazin-8-yl)ethylamino)ethyl)-3-(3-(2-(4-(2-isopropylthiazole-4-carbonyl)-1-oxa-4,9-diazaspiro[5.5]undecan-9-yl)ethoxy)phenethoxy)propanamide ditrifluoroacetate], at Adrenergic β2, the EC50 was 20 nM and the “β2 Intrinsic Activity” value is 1.0. Also, the IC50 in experiment [1] was 7.94 nM.
